Reference: US12037386B2, “Antibodies to PfGARP kill Plasmodium falciparum malaria parasites and protect against infection and severe disease” (priority 2020, dated 2024)
Where two headings read alike, the source gives them in different places.

Tests used:
Ring stage 3D7 parasites = assay: Food vacuole integrity, Fluo-4-AM confocal microscopy; assay type: cell-based, Plasmodium falciparum; conditions: 1 μM, positive control, 24 hours
Description: FIG. 17 are images showing that anti-PfGARP disrupts food vacuole integrity. Ring stage 3D7 parasites were treated with pre-immune sera (1:10), 1 μM chloroquine, or anti-PfGARP antisera (1:10) for 24 hours, followed by staining with DAPI and Fluo-4-AM. […] Data are representative of 2 independent experiments.
The impact of anti-PfGARP antibodies on food vacuole integrity by confocal microscopy was evaluated using the calcium binding dye Fluo-4-AM, which preferentially labels the food vacuole and has been used to distinguish the food vacuole from the endoplasmic reticulum (Zhang, M. et al. Science 360 (2018)).
The impact of anti-PfGARP antibodies on food vacuole integrity was further evaluated by confocal microscopy using the calcium binding dye Fluo-4-AM, which specifically labels the food vacuole. Ring stage 3D7 parasites were incubated with culture media (negative control), 1 μM chloroquine (positive control), or anti-PfGARP prepared by rPfGARP-A immunization for 24 hours. Parasites were washed with 1×PBS three times and incubated with Fluo-4-AM (a cell-permeable calcium-sensing dye that fluoresces green when bound with Ca^+2) at a final concentration of 2 μM and DAPI for 30 minutes, at 37° C. The parasites were washed with 1×PBS and observed under a fluorescent microscope.

[1] = system: food vacuole of parasites; conditions: cited from earlier work

## CCN(CC)CCCC(C)Nc1ccnc2cc(Cl)ccc12 (stereo not drawn) [chloroquine]
Ring stage 3D7 parasites
  food vacuole integrity (Fluo-4-AM redistribution): disrupts the food vacuole leading to dispersion of the dye into the parasite's cytosol
[1]; high concentrations (3 μM)
  effect on food vacuole: disrupts the food vacuole membrane
[1]; lower concentrations (68 nM)
  effect on food vacuole: marked food vacuole swelling, but no extravasation of hemozoin into the cytoplasm
